Reference: article PMC5739799 (Oncotarget, 2017)

Test: Steady-state plasma pharmacokinetics after oral dosing for 5 days
Assay type: in vivo, BALB/c nu/nu mice
Protocol: Pharmacokinetic studies were performed in 6–8-week-old female BALB/c nu/nu mice (Charles River, Sulzfeld, Germany). […] Parent compounds and metabolites M-2 and M-5 were analyzed in plasma samples using validated bioanalytical liquid chromatography-tandem mass spectrometry (LC-MS/MS) methods according to an experimental protocol described earlier. PK parameters, namely the AUC(0–24)ss and Cmax, were calculated from plasma concentrations using a non-compartmental analysis.

[1] = after oral regorafenib 10 mg/kg/day for 5 days, total = molar sum of regorafenib, M-2, M-5

SMILES	AUC(0–24)ss (percent of total) [1]	AUC(0–24)ss (percent of total) (after oral sorafenib tosylate 30 mg/kg/day for 5 days, total = molar sum of sorafenib and M-2)
CNC(=O)c1cc(Oc2ccc(NC(=O)Nc3ccc(Cl)c(C(F)(F)F)c3)c(F)c2)cc[n+]1[O-] [M-2]	9% of total	1% of total
NC(=O)c1cc(Oc2ccc(NC(=O)Nc3ccc(Cl)c(C(F)(F)F)c3)c(F)c2)cc[n+]1[O-] [M-5]	1% of total	
